This passage reports EC50 results from patent publication US8575168B2, “Compounds and compositions as modulators of GPR119 activity” (IRM LLC, priority 2009, dated 2013).

Molecules are shown by their SMILES.

In this assay the target is T1, human GPR119 (Homo sapiens, UniProt Q8TDV5).
T1 construct: expressed in transfected cells
T1 sequence (Q8TDV5 1-335): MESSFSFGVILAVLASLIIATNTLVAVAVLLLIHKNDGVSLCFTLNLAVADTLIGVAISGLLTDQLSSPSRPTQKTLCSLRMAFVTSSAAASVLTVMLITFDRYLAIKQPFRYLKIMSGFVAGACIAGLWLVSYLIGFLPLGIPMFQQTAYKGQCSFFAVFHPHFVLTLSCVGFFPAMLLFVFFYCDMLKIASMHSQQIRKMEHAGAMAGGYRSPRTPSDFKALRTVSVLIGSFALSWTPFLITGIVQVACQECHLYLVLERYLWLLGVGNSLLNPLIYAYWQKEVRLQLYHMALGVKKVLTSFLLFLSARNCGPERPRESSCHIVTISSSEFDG
In words: Cyclic AMP Assay in Stable Cell Line (HTRF). In kind it is cell-based. The conditions noted are these: Flp-In-CHO-hGPR119 cells, intracellular cAMP, 30 minutes at 37° C., 1 mM IBMX. The procedure:
Flp-In-CHO cells (Invitrogen, Cat. #R758-07) are maintained in Ham's F12 medium supplemented with 10% fetal bovine serum, 1% antibiotic mixture and 2 mM L-glutamine. The cells are transfected with a DNA mixture containing human GPR119 in pcDNA5/FRT vector and the pOG44 vector (1:9) using Fugene6 (Roche), according to the manufacturer's instruction. After 48 hours, the medium is changed to medium supplemented with 400 μg/ml hygromycin B to initiate the selection of stably transfected cells.
To test the activity of compounds of the invention, Flp-In-CHO-hGPR119 cells are harvested and resuspended in DMEM plus 3% lipid-depleted fetal bovine serum. Forth μl of cells are plated in 384 well plates at a density of 15,000 cells/well. IBMX (3-isobutyl-1-methyl-xanthine) is added to the cells to a final concentration of 1 mM, followed by the addition of 500 nl of the compound to be tested. The cells are incubated at 37° C. for 30 minutes. Equal volume (20 μl) of the HTRF reagents, anti-cAMP-Cryptate and cAMP-XL665, are added to the cells. The plates are incubated at room temperature for 1 hour and read on a HTRF reader according to the manufacturer's instruction.
Take `CS(=O)(=O)N1CCC(c2ccc(OC3CCN(Cc4nc(C(F)(F)F)no4)CC3)c(F)c2)CC1` [Example B6]: the EC50 is 37 nM.

`CS(=O)(=O)N1CCC(c2ccc(OC3CCN(Cc4nc(C(F)(F)F)no4)CC3)cc2F)CC1` [Example B7]: the EC50 was 16 nM. For `CC(C)(C)c1noc(CN2CC(Oc3c(F)cc(C4CCN(S(C)(=O)=O)CC4)cc3F)C2)n1` [Example B8], the EC50 was 286 nM. This EC50 is about 18-fold higher than that of the compound before. For the compound `CC(C)c1noc(CN2CC(Oc3c(F)cc(C4CCN(S(C)(=O)=O)CC4)cc3F)C2)n1` [Example B9], the midpoint of the response, the EC50, lay at 76 nM. This EC50 lies about 3.8-fold lower than the previous one. For `CS(=O)(=O)N1CCC(c2cc(F)c(OC3CN(Cc4nc(C5CC5)no4)C3)c(F)c2)CC1` [Example B10] the value was 131 nM; for `CC(C)c1nc(CN2CC(Oc3c(F)cc(C4CCN(S(C)(=O)=O)CC4)cc3F)C2)no1` [Example B11], 397 nM. As to `CS(=O)(=O)N1CCC(c2cc(F)c(OC3CN(Cc4nc(C(F)(F)F)no4)C3)c(F)c2)CC1` [Example B12], the EC50 amounted to 55 nM.

For the compound `CC(F)(F)c1noc(CN2CC(Oc3c(F)cc(C4CCN(S(C)(=O)=O)CC4)cc3F)C2)n1` [Example B13], the EC50 stood at 108 nM. Regarding `Cn1nc(C(F)(F)F)cc1CN1CCC(Oc2c(F)cc(C3CCN(S(C)(=O)=O)CC3)cc2F)CC1` [Example B14], it took 70 nM to reach a half-maximal effect (EC50).

Compound `Cn1nc(C(F)(F)F)cc1CN1CC(Oc2c(F)cc(C3CCN(S(C)(=O)=O)CC3)cc2F)C1` [Example B15] yielded an EC50 of 97 nM. Then `CS(=O)(=O)N1CCC(c2cc(F)c(OC3CCN(Cc4nc(C(F)(F)F)cs4)CC3)c(F)c2)CC1` [Example B16], with 9 nM; and `CS(=O)(=O)N1CCC(c2cc(F)c(OC3CN(Cc4nc(C(F)(F)F)cs4)C3)c(F)c2)CC1` [Example B17], with 74 nM; and `CS(=O)(=O)N1CCC(c2cc(F)c(OC3CCN(Cc4csc(C(F)(F)F)n4)CC3)c(F)c2)CC1` [Example B18], with 52 nM.

In turn, `CS(=O)(=O)N1CCC(c2cc(F)c(OC3CN(Cc4csc(C(F)(F)F)n4)C3)c(F)c2)CC1` [Example B19] yielded an EC50 of 448 nM. Then `Cn1nc(C(F)(F)F)nc1CN1CCC(Oc2c(F)cc(C3CCN(S(C)(=O)=O)CC3)cc2F)CC1` [Example B20], with 208 nM; and `Cn1nc(C(F)(F)F)nc1CN1CC(Oc2c(F)cc(C3CCN(S(C)(=O)=O)CC3)cc2F)C1` [Example B21], with 244 nM.

Turning to `CS(=O)(=O)N1CCC(c2cc(F)c(OC3CCN(Cc4noc(C(F)(F)F)n4)CC3)c(F)c2)CC1` [Example B22], the EC50 came out at 443 nM. Compared with the last compound, the EC50 is about 1.8-fold higher. In turn, `CS(=O)(=O)N1CCC(c2cc(F)c(OC3CN(Cc4noc(C(F)(F)F)n4)C3)c(F)c2)CC1` [Example B23] displayed an EC50 of 210 nM. For `CC(C)c1noc(CN2CCC(Oc3c(F)cc(C4CCN(S(C)(=O)=O)CC4)cc3F)CC2)n1` [Example B24], the EC50 came to 6 nM. Then `CS(=O)(=O)N1CCC(c2ccc(OC3CCN(Cc4nc(C(F)(F)F)no4)CC3)cc2)CC1` [Example B26], with 37 nM. Then `CS(=O)(=O)N1CCC(c2ccc(OC3CCN(Cc4nc(C(F)(F)F)no4)CC3)c(F)c2F)CC1` [Example B27], with 11 nM; and `CS(=O)(=O)N1CCC(c2cc(F)c(OC3CCN(Cc4nc(C(F)(F)F)no4)CC3)cc2F)CC1` [Example B28], with 5 nM.

On to `CS(=O)(=O)N1CCC(c2c(F)cc(OC3CCN(Cc4nc(C(F)(F)F)no4)CC3)cc2F)CC1` [Example B29], for which the midpoint of the response, the EC50, lay at 50 nM. For `CC(c1nc(C(F)(F)F)no1)N1CCC(Oc2c(F)cc(C3CCN(S(C)(=O)=O)CC3)cc2F)CC1` (stereo not shown) [Example B30] the value was 78 nM; for `CS(=O)(=O)N1CCC(c2cc(F)c(OC3CCN(Cc4ccc(C(F)(F)F)cc4)C3)c(F)c2)CC1` (stereo not shown) [Example C1, 4-(3,5-Difluoro-4-(1-(4-(trifluoromethyl)benzyl)pyrrolidin-3-yloxy)phenyl)-1-(methylsulfonyl)piperidine], 144 nM. For the compound `CS(=O)(=O)N1CCC(c2cc(F)c(OC3CCCN(Cc4ccc(C(F)(F)F)cc4)CC3)c(F)c2)CC1` (stereo not shown) [Example C2], the concentration for a half-maximal effect (EC50) was found to be 125 nM. Then `CC1(Oc2c(F)cc(C3CCN(S(C)(=O)=O)CC3)cc2F)CN(Cc2ccc(C(F)(F)F)cc2)C1` [Example C3], with 644 nM; and `CS(=O)(=O)N1CCC(F)(c2cc(F)c(OC3CCN(Cc4nc(C(F)(F)F)no4)CC3)c(F)c2)CC1` [Example D1, 5-((4-(2,6-difluoro-4-(4-fluoro-1-(methylsulfonyl)piperidin-4-yl)phenoxy)piperidin-1-yl)methyl)-3-(trifluoromethyl)-1,2,4-oxadiazole], with 199 nM.

A word on the EC50: it is the concentration that produces a half-maximal response. Low values mean a more potent agent, high ones a less potent agent.
